Measurements as given in patent US20150051246A1 (priority 2013, published 2015).

Tests used:
healthy adults [1] = assay: Verbal Learning Task (VLT) in healthy adults, 18 to 35 years; type: in vivo, human
Source text: The study utilized Verbal Learning Task (VLT) to analyze the increased number of words remembered following roflumilast administration. The VLT consisted of displaying 30 monosyllable words on a computer screen for a period of 60 seconds. Immediately after the presentation of the words on the computer screen subjects were asked to report as many words as they could recall by memory. This process (presentation and recall) was repeated further two times (VLT, immediate recall, 3 trials). In addition, 45 min and 24 h after the last presentation, subjects were again asked to report as many words as they could recall by memory (VLT, delayed recall 45 min and 24 h). The set of three recall trials was conducted 60 minutes following administration of the roflumilast therapy
(§1) Statistical Data Analyses Human data was analyzed using IBM SPSS Statistics version 20. General Linear Models for repeated measures were applied with the placebo condition included as contrast. Statistical outcomes for Tests of Within-Subjects Effects and Tests of Within-Subjects Contrasts were regarded for immediate and delayed free recall scores and for the summed immediate recall score (i.e. immediate 1+immediate 2+immediate 3). The factor Treatment (4 levels; placebo, roflumilast 100 mcg, roflumilast 300 mcg and roflumilast 1000 mcg) was included as a within subjects factor. For the analysis of the EEG data, the factor Channel (5 levels; Fz, FCz, Cz, CPz, and Pz) was included as a second within subjects factor. Peak and latency values of three memory related ERP's were analysed; i.e. P300, N400 and P600. In case of significant findings (p<0.05) post-hoc t-tests were performed to reveal which of the five midline electrodes contributed to the effect

healthy adults [2] = assay: EEG Event Related Potentials (P300, N400, P600) during VLT in healthy adults; type: in vivo, human; settings: for ERP P600 amplitude (in words): 100 mcg, during VLT
Protocol: An electroencephalogram (EEG) cap was used to place a set of 32 EEG electrodes according to the international 10-20 system on the subjects. Event Related Potentials (ERPs) were extracted by averaging the responses within an epoch of 100 ms before and 1000 ms after stimulus onset covering P300, N400, and P600. Separate averages were made for correct and incorrect responses within a task and for different trial types. EEG measurements were done simultaneously with VLT testing. ERPs were calculated from the words that were called during immediate recall (encoding), and from the words that were recognized and from those that were not during the recognition condition at 45 minutes. The ERP components of P300, N400, and P600 were compared to examine whether the initial stimulus processing during the learning trials differs from word to word. Finally, ERPs to the old and new items during the recognition task were measured.
as §1

[3] = tested on: 60 to 80 years old subjects (Impaired Elderly and Healthy Elderly); assay: Verbal Learning Task (VLT) in 60 to 80 years old subjects, interim analysis; type: in vivo, human
Protocol: The study is conducted according to a double-blind, placebo-controlled, four-period cross-over design. Forty healthy subjects, both male and female within an age range of 60 to 80 years are planned to be included in the study in two groups: 1) 20 subjects with a memory performance between 1-2 Standard Deviation below the average for their age, gender, and educated level (Impaired Elderly) and 2) 20 subjects with age (±3 years), gender, and educational level matched (in order to speed up the study matching was stopped after the interim analysis) with an average memory performance between 0.5 Standard Deviation below and 0.5 Standard Deviation above from normative values (Healthy Elderly). Classification in terms of impaired or healthy elderly will be determined by a one-off testing of memory performance using the Rey Verbal Learning Task (Rey A; L'examen psychologique dans les cas d'encephalopathy traumatique 1958 Paris; Presses Universitaire de France; or Van der Elst et al; J Int Neuropsychol Soc 2005, 11 (3), pp 290-302) according to fully standardized procedures as applied in The Maastricht Aging Study (Jolles et al; Maastricht Aging Study; determinants of cognitive aging; Maastricht, The Netherlands, Neuropsych Publishers 1995). Normative data for each individual subject will be derived also from the Maastricht Aging Study using the regression formula as described by Van der Elst et al (Van der Elst et al; J Int Neuropsychol Soc 2005, 11 (3), pp 290-302).
All subjects within their corresponding groups (either Healthy Elderly n=20 or Impaired Elderly n=20) will be randomized in a double blind fashion to 1 of 4 treatment sequences, each sequence consisting of the following periods: A) Placebo+placebo; B) Roflumilast 100 mcg+placebo; C) Roflumilast […]+placebo and D) Roflumilast 1000 mcg (500+500 mcg) according to a computer-generated allocation schedule in a cross-over design. Between each of the four treatment sequences there will be a 12 days washout period.
Verbal learning task (VLT) The Rey VLT as modified by Riedel and colleagues (Riedel, Klaasen et al, Psychopharmacology (Berlin) 1999 Vol 141(4) pp 362-369) is used. This modified VLT maximizes the possibility of measuring enhancement rather than only impairment, by means of prolonging the list. The test consists of a list of 30 monosyllabic words (18 nouns and 12 adjectives). The words are shown on a computer screen for 1 second. Three trials with the same item sequence are presented. Each trial ends with a free recall of the words (immediate recall). Forty-five minutes after the first exposure, the subject is asked to recall as many words as possible (delayed recall). […] The words are shown on a computer screen for 2 seconds and subjects are asked to rate whether they were presented in the learning trial by a “yes/no” response. The inter-word interval is 2 seconds. 24 Hours after the immediate recall, subjects will return to the lab for a second delayed recall and recognition. […] EEG will be recorded during the immediate recall and the first recognition test on the test day. […]
An interim analysis has been performed based on the data of 9 subjects of the Impaired Elderly group and 4 subjects of the Healthy Elderly group. For this purpose, cognitive battery test scores (VLT, SMT, Stroop task and BL-VAS) and concentrations of roflumilast and roflumilast-N-oxide in plasma have been analysed and summarized by dose over each scheduled sampling time using descriptive statistics. […]

[4] = type: in vivo, human; settings: human, in vivo
Source text: An interim analysis has been performed based on the data of 9 subjects of the Impaired Elderly group and 4 subjects of the Healthy Elderly group. For this purpose, cognitive battery test scores (VLT, SMT, Stroop task and BL-VAS) and concentrations of roflumilast and roflumilast-N-oxide in plasma have been analysed and summarized by dose over each scheduled sampling time using descriptive statistics.

Q: For `O=C(Nc1c(Cl)cncc1Cl)c1ccc(OC(F)F)c(OCC2CC2)c1` [roflumilast, N-(3,5-dichloropyridin-4-yl)-3-cyclopropylmethoxy-4-difluoromethoxybenzamide], which “number of correct words recalled after 3rd trial (in words)” value (healthy adults [1]; 100 mcg) is on record?
A: significant increase in the number of correct words recalled

Q: What about the placebo-corrected fold-improvement (healthy adults [1]; 100 mcg, 3rd trial, healthy volunteer study) of the same compound?
A: 1.12

Q: What about the “number of words on the 3rd trial” value (healthy adults [1]; 100 mcg, young volunteers) of the same compound?
A: 23.7 words

Q: What about the “number of correct words recalled (in words)” value (healthy adults [1]; 300 mcg and 1000 mcg, FIG. 2) of the same compound?
A: some effect

Q: What about the “improvement in number of correct words recalled, average” value (healthy adults [1]; single oral dose 100 mcg, after the third trial) of the same compound?
A: 2.5 words

Q: And the “ERP P600 amplitude (in words)” value (healthy adults [2])?
A: strongest increase of amplitude

Q: What about the “ERP P600 amplitude (in words)” value (healthy adults [2]; listed as Roflumilast) of the same compound?
A: increased amplitude

Q: What about the “ERP P600 (in words)” value (healthy adults [2]; 300 mcg and 1000 mcg, FIG. 3) of the same compound?
A: some effect

Q: What about the “increase in number of correct words, 45 min delayed recall, compared to placebo” value ([3]; 100 mcg) of the same compound?
A: 1.7 words

Q: What about the placebo-corrected fold-improvement ([3]; 100 mcg, 3rd trial, interim data elderly study) of the same compound?
A: 1.16

Q: And the “increase in number of correct words immediately recalled, compared to placebo” value ([3]; 100 mcg, after 3rd trial)?
A: 1.5 words

Q: And the “number of words on the 3rd trial” value ([3]; 100 mcg, elderly subjects)?
A: 10.28 words

Q: And the “increase in number of correct words, 45 min delayed recall, compared to placebo” value ([3]; 1000 mcg)?
A: 1.6 words

Q: And the exposure [4]?
A: consistent with those previously reported
